Results from US20250382305A1 (PTC THERAPEUTICS, INC., priority 2022, published 2025).

Assays:
[1] = test system: Total ATXN3 (tATXN3) protein; experiment: Endogenous Total ATXN3 (tATXN3) Protein Assay (MSD immunoassay of cell lysates); format: cell-based; settings: average IC50, total ATXN3 protein in cell lysate after 48 h with compound (Table 1)
Procedure, shortened: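 Cells in DMEM/10% FBS were plated at 10,000 per well onto 7-point, 3.16-fold compound dilutions in duplicate for 48 h at 37° C, then lysed. Total ATXN3 in lysates was measured by MSD sandwich immunoassay: mouse anti-ATXN3 capture, rabbit anti-ATXN3 detection, SULFO-TAG anti-rabbit. Average IC50 was reported in star bins.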

[2] = test system: ATXN3 pre-mRNA; experiment: RT-qPCR Assay to Quantify Exon 4 Skipping in ATXN3 pre-mRNA in Cells; format: cell-based; settings: percent exon 4 skipping in ATXN3 pre-mRNA, RT-qPCR of cell lysates; average IC50
Procedure, shortened: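 Cells plated at 10,000/well onto a 7-point, 3.16-fold DMSO dilution series (duplicates), incubated 24 h at 37 °C, then lysed. Exon 4 skipping measured by one-step RT-qPCR (48 °C RT, 40 cycles); IC50 interpolated from dose-response fit of percent skipping.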

Compound	IC50 [1] [nM]	IC50 [2] [nM]
2-((2R,3S)-3-aminopiperidin-2-yl)-3-bromo-5-chloro-N-(thiophen-2-ylmethyl)thieno[3,2-b]pyridin-7-amine and 2-((2S,3R)-3-aminopiperidin-2-yl)-3-bromo-5-chloro-N-(thiophen-2-ylmethyl)thieno[3,2-b]pyridin-7-amine [Compound 46]	> 1000	> 1000
N[C@H]1CCCO[C@@H]1c1c(Cl)c2nc(Cl)nc(NCc3ccco3)c2n1C(F)F [Compound 244, 6-((2S,3S)-3-aminotetrahydro-2H-pyran-2-yl)-2,7-dichloro-5-(difluoromethyl)-N-(furan-2-ylmethyl)-5H-pyrrolo[3,2-d]pyrimidin-4-amine]	≤ 30	≤ 30
2-((3R,4S)-3-aminotetrahydro-2H-pyran-4-yl)-5-chloro-3-iodo-N-(thiophen-2-ylmethyl)thieno[3,2-b]pyridin-7-amine and 2-((3S,4R)-3-aminotetrahydro-2H-pyran-4-yl)-5-chloro-3-iodo-N-(thiophen-2-ylmethyl)thieno[3,2-b]pyridin-7-amine [Compound 275]	30 to 300	30 to 300
COc1ncccc1C#Cc1c([C@H]2CC=CC[C@@H]2N)sc2c(NCc3cccs3)cc(Cl)nc12 [Compound 394, 2-((1S,6S)-6-aminocyclohex-3-en-1-yl)-5-chloro-3-((2-methoxypyridin-3-yl)ethynyl)-N-(thiophen-2-ylmethyl)thieno[3,2-b]pyridin-7-amine]	300 to 1000	300 to 1000
N[C@H]1CC=CC[C@@H]1c1sc2c(NCc3cccs3)nc(Cl)nc2c1I [Compound 182, 6-((1S,6S)-6-aminocyclohex-3-en-1-yl)-2-chloro-7-iodo-N-(thiophen-2-ylmethyl)thieno[3,2-d]pyrimidin-4-amine]	≤ 30	≤ 30
2-((2R,3R)-3-aminobicyclo[3.2.1]octan-2-yl)-3-bromo-5-chloro-N-(thiophen-2-ylmethyl)thieno[3,2-b]pyridin-7-amine and 2-((2S,3S)-3-aminobicyclo[3.2.1]octan-2-yl)-3-bromo-5-chloro-N-(thiophen-2-ylmethyl)thieno[3,2-b]pyridin-7-amine [Compound 85]	> 1000	> 1000
CN[C@H]1CC=CC[C@@H]1c1sc2c(NCc3cccs3)cc(Cl)nc2c1C#CCCO [Compound 303, 4-(5-chloro-2-((1S,6S)-6-(methylamino)cyclohex-3-en-1-yl)-7-((thiophen-2-ylmethyl)amino)thieno[3,2-b]pyridin-3-yl)but-3-yn-1-ol]	30 to 300	30 to 300
2-((2R,3S)-3-aminotetrahydrofuran-2-yl)-3-bromo-5-chloro-N-(thiophen-2-ylmethyl)thieno[3,2-b]pyridin-7-amine and 2-((2S,3R)-3-aminotetrahydrofuran-2-yl)-3-bromo-5-chloro-N-(thiophen-2-ylmethyl)thieno[3,2-b]pyridin-7-amine [Compound 150]	30 to 300	30 to 300
N[C@H]1COCC[C@@H]1c1sc2c(NCc3nccs3)cc(Cl)nc2c1Cl [Compound 337, 2-((3R,4S)-3-aminotetrahydro-2H-pyran-4-yl)-3,5-dichloro-N-(thiazol-2-ylmethyl)thieno[3,2-b]pyridin-7-amine]	30 to 300	30 to 300
2-((2R,3R)-3-aminotetrahydro-2H-pyran-2-yl)-N-benzyl-5-chlorothieno[3,2-b]pyridin-7-amine and 2-((2S,3S)-3-aminotetrahydro-2H-pyran-2-yl)-N-benzyl-5-chlorothieno[3,2-b]pyridin-7-amine [Compound 26]	300 to 1000	300 to 1000
Cc1c([C@H]2CC=CC[C@@H]2N)sc2c(NCc3cccs3)cc(C#N)nc12 [Compound 246, 2-((1S,6S)-6-aminocyclohex-3-en-1-yl)-3-methyl-7-((thiophen-2-ylmethyl)amino)thieno[3,2-b]pyridine-5-carbonitrile]	≤ 30	30 to 300
Cc1c([C@H]2CCCC[C@@H]2N)sc2c(NCc3ccco3)nc(Cl)nc12 [Compound 60, 6-((1S,2S)-2-aminocyclohexyl)-2-chloro-N-(furan-2-ylmethyl)-7-methylthieno[3,2-d]pyrimidin-4-amine]	≤ 30	≤ 30
N[C@@H]1COCC[C@H]1c1sc2c(NCc3cccs3)cc(Cl)nc2c1Cl.N[C@H]1COCC[C@@H]1c1sc2c(NCc3cccs3)cc(Cl)nc2c1Cl (mixture of isomers) [Compound 272, 2-((3R,4S)-3-aminotetrahydro-2H-pyran-4-yl)-3,5-dichloro-N-(thiophen-2-ylmethyl)thieno[3,2-b]pyridin-7-amine and 2-((3S,4R)-3-aminotetrahydro-2H-pyran-4-yl)-3,5-dichloro-N-(thiophen-2-ylmethyl)thieno[3,2-b]pyridin-7-amine]	30 to 300	30 to 300
N[C@@H]1CC=CC[C@H]1c1sc2c(NCc3cccs3)cc(Cl)nc2c1I.N[C@H]1CC=CC[C@@H]1c1sc2c(NCc3cccs3)cc(Cl)nc2c1I (mixture of isomers) [Compound 209, 2-((1R,6R)-6-aminocyclohex-3-en-1-yl)-5-chloro-3-iodo-N-(thiophen-2-ylmethyl)thieno[3,2-b]pyridin-7-amine and 2-((1S,6S)-6-aminocyclohex-3-en-1-yl)-5-chloro-3-iodo-N-(thiophen-2-ylmethyl)thieno[3,2-b]pyridin-7-amine]	≤ 30	≤ 30
Cc1c([C@H]2OCCC[C@@H]2N)sc2c(NCc3ccco3)nc(Cl)nc12 [Compound 62, 6-((2S,3S)-3-aminotetrahydro-2H-pyran-2-yl)-2-chloro-N-(furan-2-ylmethyl)-7-methylthieno[3,2-d]pyrimidin-4-amine]	30 to 300	≤ 30
6-((3R,4S)-3-aminotetrahydro-2H-pyran-4-yl)-7-bromo-2-chloro-N-(thiophen-2-ylmethyl)thieno[3,2-d]pyrimidin-4-amine and 6-((3S,4R)-3-aminotetrahydro-2H-pyran-4-yl)-7-bromo-2-chloro-N-(thiophen-2-ylmethyl)thieno[3,2-d]pyrimidin-4-amine [Compound 347]	30 to 300	30 to 300
N[C@H]1CC=CC[C@@H]1c1sc2c(NCc3ccco3)cc(Cl)nc2c1Cl [Compound 169, 2-((1S,6S)-6-aminocyclohex-3-en-1-yl)-3,5-dichloro-N-(furan-2-ylmethyl)thieno[3,2-b]pyridin-7-amine]	≤ 30	≤ 30

Further lines, results first:

IC50 [1] [nM]	IC50 [2] [nM]	Compound
> 1000	> 1000	N[C@@H]1CCCCC[C@@H]1c1sc2c(NCc3cccs3)cc(Cl)nc2c1Br [Compound 72, 2-((1S,2R)-2-aminocycloheptyl)-3-bromo-5-chloro-N-(thiophen-2-ylmethyl)thieno[3,2-b]pyridin-7-amine]
30 to 300	30 to 300	CCc1c([C@H]2CCCC[C@@H]2N)sc2c(NCc3cccs3)cc(Cl)nc12 (single isomer, unassigned) [Compound 40, 2-((1S,2S)-2-aminocyclohexyl)-5-chloro-3-ethyl-N-(thiophen-2-ylmethyl)thieno[3,2-b]pyridin-7-amine or 2-((1R,2R)-2-aminocyclohexyl)-5-chloro-3-ethyl-N-(thiophen-2-ylmethyl)thieno[3,2-b]pyridin-7-amine]
300 to 1000	300 to 1000	N[C@@H]1COCC[C@H]1c1sc2c(NCc3cccs3)cc(Cl)nc2c1Br [Compound 140, 2-((3S,4R)-3-aminotetrahydro-2H-pyran-4-yl)-3-bromo-5-chloro-N-(thiophen-2-ylmethyl)thieno[3,2-b]pyridin-7-amine]
> 1000	> 1000	N[C@@H]1CCC[C@H]1c1sc2c(NCc3cccs3)cc(Cl)nc2c1I [Compound 154, 2-((1R,2R)-2-aminocyclopentyl)-5-chloro-3-iodo-N-(thiophen-2-ylmethyl)thieno[3,2-b]pyridin-7-amine]
30 to 300	30 to 300	N[C@H]1CC=CC[C@@H]1c1sc2c(NCc3ccccc3)nc(Cl)nc2c1Cl [Compound 263, 6-((1S,6S)-6-aminocyclohex-3-en-1-yl)-N-benzyl-2,7-dichlorothieno[3,2-d]pyrimidin-4-amine]
> 1000	> 1000	N[C@@H]1CCCCCC[C@@H]1c1cc2nc(Cl)cc(NCc3cccs3)c2s1 [Compound 106, 2-((1S,2R)-2-aminocyclooctyl)-5-chloro-N-(thiophen-2-ylmethyl)thieno[3,2-b]pyridin-7-amine]
30 to 300	30 to 300	C#Cc1c([C@@H]2CCCC[C@H]2N)sc2c(NCc3ccccc3)cc(Cl)nc12 [Compound 344, 2-((1R,2R)-2-aminocyclohexyl)-N-benzyl-5-chloro-3-ethynylthieno[3,2-b]pyridin-7-amine]
300 to 1000	300 to 1000	N[C@@H]1CCC[C@H]1c1sc2c(NCc3cccs3)cc(Cl)nc2c1Br [Compound 7, 2-((1R,2R)-2-aminocyclopentyl)-3-bromo-5-chloro-N-(thiophen-2-ylmethyl)thieno[3,2-b]pyridin-7-amine]
> 1000	> 1000	Cc1c([C@@H]2CCCCCC[C@@H]2N)sc2c(NCc3cccs3)cc(Cl)nc12 [Compound 95, 2-((1R,2S)-2-aminocyclooctyl)-5-chloro-3-methyl-N-(thiophen-2-ylmethyl)thieno[3,2-b]pyridin-7-amine]
300 to 1000	300 to 1000	Cc1c([C@H]2CCC[C@@H]2N)sc2c(NCc3ccccc3)cc(Cl)nc12 [Compound 107, 2-((1S,2S)-2-aminocyclopentyl)-N-benzyl-5-chloro-3-methylthieno[3,2-b]pyridin-7-amine]
